In ChEMBL document CHEMBL1201862, “PubChem BioAssay data set” (2004):
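How tested: cells in 96-well plates exposed to compound for 48 hours at five concentrations. At the GI50, growth is halved.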 Activity calls are given as the source filed them. Rule as the data show it: active = GI50 up to about 1.1 µM and inactive = higher.

Legend:
Assay in all cases: DTP human tumour cell line panel, 48 h
[1] = test system: 786-0
[2] = test system: ACHN
[3] = test system: BT-549
[4] = test system: CAKI-1
[5] = test system: HL-60
[6] = test system: HOP-62
[7] = test system: K562
[8] = test system: KM12
[9] = test system: MCF7
[10] = test system: MDA-MB-435
[11] = test system: NCI-H23
[12] = test system: NCI/ADR-RES
[13] = test system: OVCAR-4
[14] = test system: PC-3
[15] = test system: RXF 393
[16] = test system: SF-268
[17] = test system: SK-MEL-2
[18] = test system: SK-MEL-5
[19] = test system: SR
[20] = test system: SW-620

Measured: GI50

O=C(O)c1ccccc1NC(c1ccccc1)c1ccc2cccnc2c1O (stereo not given)
inactive: [1] 4.39 µM | [2] 9.18 µM | [3] 11 µM | [4] 9.44 µM | [5] 1.2 µM | [6] 7.67 µM | [7] 8.87 µM | [8] 5.31 µM | [9] 4.85 µM | [10] 14.8 µM | [11] 12.6 µM | [12] 3.77 µM | [13] 5.78 µM | [14] 9.04 µM | [15] 10 µM | [16] 5.19 µM | [17] 25.2 µM | [18] 8.39 µM | [19] 2.06 µM | [20] 5.4 µM

Clc1ccc(/C=c2\nc(-c3ccccc3)n3c2nc2ccccc23)cc1
inactive: [1] 56.8 µM | [2] 21.9 µM | [3] 63.2 µM | [4] 51.4 µM | [5] > 100 µM | [6] 38.4 µM | [7] > 100 µM | [8] > 100 µM | [9] > 100 µM | [10] > 100 µM | [11] > 100 µM | [12] 28.2 µM | [13] 56.4 µM | [14] 19.1 µM | [15] 28.7 µM | [16] 34.4 µM | [17] > 100 µM | [18] > 100 µM | [19] > 100 µM | [20] > 100 µM

O=[N+]([O-])c1ccc(CN(CCCl)OCCCl)cc1
inactive: [1] > 100 µM | [2] 64.3 µM | [3] > 100 µM | [4] 64.9 µM | [5] 40 µM | [6] > 100 µM | [7] 33.8 µM | [8] > 100 µM | [9] 83.4 µM | [10] > 100 µM | [11] 76.7 µM | [12] > 100 µM | [13] 56.9 µM | [14] 26.8 µM | [15] > 100 µM | [16] > 100 µM | [17] > 100 µM | [18] 51.3 µM | [19] 65 µM | [20] 91.2 µM

Clc1ccc(/N=C/C=C/Nc2ccc(Cl)cn2)nc1
inactive: [1] 5.65 µM | [2] 12.6 µM | [3] 17.2 µM | [4] 9.82 µM | [5] 2.12 µM | [6] 16.9 µM | [7] 7.66 µM | [8] 8.53 µM | [9] 16.4 µM | [10] 14.5 µM | [11] 16.9 µM | [12] 15.2 µM | [13] 7.52 µM | [14] 14.5 µM | [15] 18.4 µM | [16] 16.4 µM | [17] 15.6 µM | [18] 13.7 µM | [19] 2.78 µM | [20] 4.9 µM

BrC1=C(Br)C2(SCCS2)[C@H]2C[C@@H]1c1ccccc12
inactive: [1] 58.3 µM | [2] > 44 µM | [3] 38.4 µM | [4] > 91.2 µM | [5] 20.9 µM | [6] > 100 µM | [7] 9.12 µM | [8] 11.6 µM | [9] 22.3 µM | [10] 4.4 µM | [11] 33.9 µM | [12] 61.5 µM | [13] 29.9 µM | [14] 95.5 µM | [15] > 31.2 µM | [16] 63.7 µM | [17] 41.2 µM | [18] 9.38 µM | [19] 9.4 µM | [20] 35.3 µM

Cc1cc2c(cc1Cl)SC(c1ccccc1O)NS2(=O)=O (stereo not given)
inactive: [1] 34.7 µM | [2] 52.8 µM | [3] 47.2 µM | [4] 50.6 µM | [5] 59.7 µM | [6] > 100 µM | [7] 27.7 µM | [8] 94 µM | [9] 36.9 µM | [10] 45.7 µM | [11] 70.6 µM | [12] 30.7 µM | [13] 63.7 µM | [14] 68.5 µM | [15] 53.5 µM | [16] 91.4 µM | [17] 87.3 µM | [18] 42.7 µM | [19] 16.4 µM | [20] 19.2 µM

O=C(NCCCl)N(O)C(=O)Nc1ccccc1
inactive: [1] > 100 µM | [2] > 100 µM | [3] > 100 µM | [4] > 100 µM | [5] > 100 µM | [6] > 100 µM | [7] > 100 µM | [8] > 100 µM | [9] > 100 µM | [10] > 100 µM | [11] > 100 µM | [12] 74.6 µM | [13] > 100 µM | [14] > 100 µM | [15] > 100 µM | [16] > 100 µM | [17] > 100 µM | [18] 98.2 µM | [19] > 100 µM | [20] > 100 µM

Cc1cc(Br)cc(C)c1NC(=O)C(=O)Nn1c(S)nc2ccccc2c1=O
inactive: [1] > 100 µM | [2] > 100 µM | [3] > 100 µM | [4] > 100 µM | [5] > 100 µM | [6] > 100 µM | [7] > 100 µM | [8] > 100 µM | [9] > 100 µM | [10] > 100 µM | [11] > 100 µM | [12] > 100 µM | [13] 33.8 µM | [14] > 100 µM | [15] > 100 µM | [16] > 100 µM | [17] > 100 µM | [18] > 100 µM | [19] > 100 µM | [20] > 100 µM

O=C1NC2(CCN(CCc3ccccc3)CC2)Oc2ccccc21
inactive: [1] > 100 µM | [2] 84.7 µM | [3] 39 µM | [4] > 100 µM | [5] 40.4 µM | [6] > 100 µM | [7] 32.5 µM | [8] 54.7 µM | [9] 46.5 µM | [10] 53.5 µM | [11] 64 µM | [12] 38.2 µM | [13] > 100 µM | [14] 33.9 µM | [15] 22.4 µM | [16] > 100 µM | [17] > 100 µM | [18] 14.5 µM | [19] 52.7 µM | [20] > 100 µM

N#CC(C#N)=C(N)/C(C#N)=C/c1ccc2[nH]ccc2c1
inactive: [1] > 100 µM | [2] > 100 µM | [3] 70.6 µM | [4] > 100 µM | [5] > 100 µM | [6] > 84.3 µM | [7] > 100 µM | [8] > 100 µM | [9] > 100 µM | [10] > 100 µM | [11] > 100 µM | [12] > 100 µM | [13] > 100 µM | [14] > 100 µM | [15] > 91.2 µM | [16] > 100 µM | [17] > 100 µM | [18] > 100 µM | [19] > 100 µM | [20] > 100 µM
